Laboratory results as given in PMC10751545 (Science (New York, N.Y.), 2023).
pIC50, pKd: −log10 of the molar value. Read-outs that look alike come from different tables or passages of the source.

Columns and labels:
GPR158 [1] = molecular target: T1, GPR158 (Homo sapiens, UniProt Q5T848); experiment: BRET-based cAMP biosensor screen in HEK293 cells expressing GPR158; assay type: cell-based; conditions: for cAMP change in cells expressing GPR158 relative to non-transfected cells: BRET cAMP biosensor
T1 sequence (Q5T848 24-1215): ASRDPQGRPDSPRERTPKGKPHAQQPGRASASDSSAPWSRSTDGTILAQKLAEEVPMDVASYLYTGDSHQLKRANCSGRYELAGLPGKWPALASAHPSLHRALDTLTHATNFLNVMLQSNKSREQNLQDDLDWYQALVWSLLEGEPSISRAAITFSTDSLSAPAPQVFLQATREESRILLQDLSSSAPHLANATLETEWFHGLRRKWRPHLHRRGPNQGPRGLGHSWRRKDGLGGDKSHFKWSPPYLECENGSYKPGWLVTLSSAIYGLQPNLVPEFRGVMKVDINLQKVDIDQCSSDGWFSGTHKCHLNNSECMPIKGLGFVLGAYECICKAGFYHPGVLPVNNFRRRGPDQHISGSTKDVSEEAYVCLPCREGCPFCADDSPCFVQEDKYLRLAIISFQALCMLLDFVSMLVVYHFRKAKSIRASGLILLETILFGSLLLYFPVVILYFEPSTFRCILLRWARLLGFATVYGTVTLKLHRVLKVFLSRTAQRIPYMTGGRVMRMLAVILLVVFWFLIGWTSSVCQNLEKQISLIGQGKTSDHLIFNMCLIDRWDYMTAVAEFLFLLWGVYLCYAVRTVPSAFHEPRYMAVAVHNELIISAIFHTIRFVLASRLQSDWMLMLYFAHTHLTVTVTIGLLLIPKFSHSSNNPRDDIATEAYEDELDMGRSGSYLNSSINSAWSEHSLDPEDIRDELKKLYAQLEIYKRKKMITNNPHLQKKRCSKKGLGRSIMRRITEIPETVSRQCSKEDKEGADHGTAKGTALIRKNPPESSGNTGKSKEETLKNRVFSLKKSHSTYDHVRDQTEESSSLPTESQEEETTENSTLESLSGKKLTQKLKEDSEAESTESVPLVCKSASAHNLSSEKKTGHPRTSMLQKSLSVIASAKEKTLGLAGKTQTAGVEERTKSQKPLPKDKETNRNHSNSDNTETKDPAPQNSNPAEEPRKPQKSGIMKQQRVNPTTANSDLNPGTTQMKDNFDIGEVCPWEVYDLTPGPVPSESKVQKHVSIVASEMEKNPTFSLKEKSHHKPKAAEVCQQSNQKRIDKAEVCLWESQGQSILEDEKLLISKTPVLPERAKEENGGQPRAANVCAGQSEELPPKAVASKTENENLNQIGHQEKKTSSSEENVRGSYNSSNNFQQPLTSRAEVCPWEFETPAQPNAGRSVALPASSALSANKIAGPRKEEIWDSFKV

GPR158-RGS7/Gβ5 complex = molecular target: T2, GPR158-RGS7/Gβ5 complex (Homo sapiens, UniProt Q5T848); experiment: BRET-based GAP assay; assay type: cell-based
T2 sequence (Q5T848 24-1215): T1 sequence (Q5T848 24-1215)
T2 sequence (P49802 1-495 partner): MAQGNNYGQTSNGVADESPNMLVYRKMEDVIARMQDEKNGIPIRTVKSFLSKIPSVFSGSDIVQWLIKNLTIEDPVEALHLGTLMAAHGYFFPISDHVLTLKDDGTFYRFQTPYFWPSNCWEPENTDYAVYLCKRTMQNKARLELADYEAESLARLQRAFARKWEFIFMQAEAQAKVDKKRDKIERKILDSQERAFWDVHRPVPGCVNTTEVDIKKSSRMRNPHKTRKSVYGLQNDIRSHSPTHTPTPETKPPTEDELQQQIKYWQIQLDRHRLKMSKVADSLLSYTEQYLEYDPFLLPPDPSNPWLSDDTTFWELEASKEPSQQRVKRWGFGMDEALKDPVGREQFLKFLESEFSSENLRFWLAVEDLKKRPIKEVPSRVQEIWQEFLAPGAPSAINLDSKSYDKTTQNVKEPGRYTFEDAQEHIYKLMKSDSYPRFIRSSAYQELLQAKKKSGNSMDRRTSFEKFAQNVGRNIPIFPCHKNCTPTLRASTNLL
T2 sequence (O14775 1-395 partner): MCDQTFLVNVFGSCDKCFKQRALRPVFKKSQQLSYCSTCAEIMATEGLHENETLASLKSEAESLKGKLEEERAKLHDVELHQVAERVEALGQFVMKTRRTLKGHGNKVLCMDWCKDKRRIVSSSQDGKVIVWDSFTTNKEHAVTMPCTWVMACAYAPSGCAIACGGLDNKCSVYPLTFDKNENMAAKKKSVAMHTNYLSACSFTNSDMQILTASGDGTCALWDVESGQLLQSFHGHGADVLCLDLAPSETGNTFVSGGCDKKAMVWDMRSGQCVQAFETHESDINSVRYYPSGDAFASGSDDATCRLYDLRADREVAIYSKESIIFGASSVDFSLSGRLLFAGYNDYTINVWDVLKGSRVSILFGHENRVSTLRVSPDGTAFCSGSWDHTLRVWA

GPR158 [2] = molecular target: T1, GPR158; experiment: G protein activation by GPR158; assay type: cell-based; conditions: any G proteins tested
GPR158 [3] = molecular target: T1, GPR158; experiment: Binding competition, displacement of [3H]-glycine bound to GPR158
[4] = system: layer II-III neurons in the prelimbic cortex; experiment: Slice electrophysiology, intrinsic excitability of cortical neurons; assay type: cell-based, mice
GPR158 [5] = molecular target: T1, GPR158
[6] = system: GPR158 R173A, E271A, and Y269A mutants
GPR158 [7] = molecular target: T1, GPR158; remark: listed apart in the source
GPR158 [8] = molecular target: T1, GPR158; remark: listed apart in the source

NCCS(=O)(=O)O [taurine]
effect on GPR158-mediated suppression of cAMP compared directly with glycine (GPR158 [1]): weaker than the effect of glycine | cAMP change in cells expressing GPR158 relative to non-transfected cells (GPR158 [1]): significant decrease in cAMP levels | pIC50 (GPR158-RGS7/Gβ5 complex): ~5.22 | activation of G proteins by GPR158 (GPR158 [2]): no significant activation | pIC50 (GPR158 [3]): ~5.22 | affinity relative to glycine (GPR158 [3]; competition with [3H]-glycine): two-fold lower affinity | excitability (neuronal firing) of layer II-III neurons ([4]; taurine): small effects on neuronal firing

NCC(=O)O [[^3H]-glycine, reference compound]
binding to GPR158-expressing cells (GPR158 [5]; HEK293 cells expressing GPR158, across concentrations): significant binding | [3H]-glycine binding to mutants [6]: near complete loss

NCC(=O)O [glycine]
cAMP change in cells expressing GPR158 relative to non-transfected cells (GPR158 [1]): significant decrease in cAMP | effect on Gαo deactivation, GPR158 co-expressed with RGS7/Gβ5 (GPR158-RGS7/Gβ5 complex; 100μM): significantly decelerated Gαo deactivation | effect on baseline or RGS7/Gβ5-assisted Gαo deactivation without GPR158 (GPR158-RGS7/Gβ5 complex; cells without GPR158, 100μM): no effect | activation of G proteins by GPR158 (GPR158 [2]): no significant activation | pIC50 (GPR158 [3]; read-out: IC50, displacement of [3H]-glycine bound to GPR158): ~5.52 | resting membrane potential ([4]; layer II-III neurons): without changes | amount of current necessary to elicit the first action potential (rheobase) ([4]; layer II-III neurons, glycine 1mM): decreasing | number of action potentials ([4]; layer II-III neurons, glycine 1mM, synaptic blockade): significantly increased | intrinsic excitability of layer V neurons ([4]; layer V neurons, which do not express GPR158): did not produce any changes | excitability of layer II-III neurons in Gpr158 KO mice ([4]; prefrontal cortex, Gpr158 KO mice, glycine 1mM): failed to alter excitability | cAMP change in cells lacking GPR158 (GPR158 [7]; U87 glioblastoma cells lacking GPR158, glycine 100μM): No glycine-induced changes in cAMP | cAMP change in cells expressing GPR158 (GPR158 [7]; U87 glioblastoma cells, 10μM forskolin, glycine 100μM): cAMP decrease | β-arrestin recruitment to GPR158 (GPR158 [8]): no significant response | pKd (GPR158 [5]; read-out: Kd of GPR158 for glycine, Scatchard analysis, membranes containing GPR158): ~5.52
